From a melting point compilation (Tetko et al.)

Compound	melting point
NC(=O)NCCCc1ccccc1	137 to 139 °C
CN1CCC(O)(Cc2ccccc2Cl)CC1	73 to 75 °C
Cc1sc(N)nc1Cc1ccccc1	75 to 77 °C
O=C(CSc1nnnn1-c1ccccc1)c1ccc[nH]1	182 to 184 °C
O=C(CCl)Nc1ccc(SC(F)F)cc1	55 to 57 °C
CS(=O)(=O)NCc1ccc(C(=O)O)o1	139 to 141 °C
CC(=O)Nc1cc(S(=O)(=O)Cl)ccc1F	161 to 163 °C
CC(Nc1ncc(C(=O)O)cc1Cl)c1cccnc1 (stereo not drawn)	184 to 186 °C
ClCc1cc(Cl)c2c(c1)OCCCO2	59 to 63 °C
CCOC(=O)NC1CCC(O)CC1 (stereo not drawn)	132 to 134 °C
O=C(O)Cn1nc2n(c1=O)CCCCC2	229 to 231 °C
O=C(O)CCNC(=O)c1ccc(Br)cc1	142 to 144 °C
OCc1cn(-c2ccc(Cl)c(Cl)c2)nn1	142 to 144 °C
ClCc1nnc(-c2cccs2)o1	77 to 79 °C
O=C1CS/C(=C/C(=O)c2ccco2)N1	251 to 253 °C
CC1CC(=O)c2c(O)ccc(Cl)c21 (stereo not drawn)	55 to 57 °C
CS(=O)(=O)Cc1nc(=N)o[nH]1	158 to 160 °C
N#CCc1csc(-c2ccccc2)n1	57 to 59 °C
O=S(=O)(Cl)c1ccc(OCCBr)cc1	59 to 61 °C
c1nc(N2CCNCC2)c2sccc2n1	98 to 100 °C
O=C(O)C1CCCN1C(=O)c1ccc2[nH]nnc2c1 (stereo not drawn)	223 to 225 °C
Cc1ccc(N2CCCC2)c(C#N)c1	42 to 44 °C
COC(=O)c1cc(C)nc2nc(S)[nH]c(=O)c12	259 to 261 °C
O=C(O)c1ncncc1Cl	153 to 155 °C
Nc1ccccc1CC(=O)O	119 to 121 °C

Compound	melting point
COCCn1cc(C(=O)O)ccc1=O	185 to 187 °C
Cn1c(=O)[nH]c(=O)c2cc(C(=O)O)cnc21	316 to 318 °C
O=C(c1ccc(F)cc1)c1cccnc1	92 to 94 °C
Cc1nn(C2CCS(=O)(=O)C2)c(N2CCCCC2)c1C=O (stereo not drawn)	86 to 88 °C
COCC(=O)Nc1ccc(O)cc1	139 to 141 °C
NC(=S)C1CN2CCCC2CO1 (stereo not drawn)	146 to 148 °C
CSCCC(C(=O)O)N1C(=O)c2ccccc2C1=O (stereo not drawn)	125 to 127 °C
Cc1cc(=O)n2nc(N)sc2n1	335 to 337 °C
CN(C)C(=O)c1csc(C(=O)CCl)c1	142 to 144 °C
CCNC(=O)c1cccc(N)c1	69 to 71 °C
Cc1ccc(-c2nc(S)n[nH]2)cc1	125 to 128 °C
O=Cc1cn(-c2ccccc2)nc1-c1ccncc1	153 to 155 °C
NS(=O)(=O)N1CCc2ccccc2C1	159 to 161 °C
O=c1[nH]c(CCl)nc2scc(-c3ccccc3)c12	227 to 229 °C
FC(F)(F)c1ccc2sc(Cl)nc2c1	57 to 59 °C
ClCc1csc(-c2ncccn2)n1	147 to 149 °C
OCc1ccc(Br)cc1Cl	70 to 72 °C
O=C(O)c1cnn(-c2ccc(Br)cc2)c1	254 to 256 °C
CCNC(=O)NC(C)(C)C(=O)O	150 to 152 °C
Cn1cnnc1-c1ccc(N)nc1	249 to 251 °C
O=C(O)c1ccc2ncc(I)n2c1	254 to 256 °C
O=C(O)c1n[nH]c2ccc(I)cc12	285 to 287 °C
NCc1ccc(N2CCS(=O)(=O)CC2)cc1	97 to 99 °C
ClCc1cnn(-c2ccccc2)c1	65 to 69 °C
ClCc1nc(-c2cccc(Br)c2)no1	47 to 49 °C

Compound	melting point
O=C(CCl)ONc1nc2ccccc2[nH]c1=O	187 to 189 °C
NC(=O)NCc1cccc(F)c1	134 to 136 °C
Nc1ccc(N2CCNC(=O)C2)nc1	136 to 138 °C
Cc1nnc(SCCC(=O)O)[nH]1	131 to 133 °C
CC1CCN(Cc2ccccc2)c2ccccc2N1 (stereo not drawn)	68 to 70 °C
Nc1cc(Br)cc(C(=O)O)c1	217 to 221 °C
O=S(=O)(Cl)Cc1noc2ccccc12	96 to 98 °C
Cc1ccc(C)c(OCCCCC(=O)O)c1	56 to 58 °C
O=C(O)c1cc(-c2ccc(Cl)c(Cl)c2)ns1	208 to 210 °C
CC(C)(C)OC(=O)Nc1csc(Br)n1	104 to 106 °C
O=Cc1ccc(-c2ccc(Cl)cc2[N+](=O)[O-])o1	92 to 94 °C
O=C(O)c1ccc(S(=O)(=O)Cl)c(Cl)c1	199 to 201 °C
COc1ccc(Cn2ncc3cc(C(=O)O)cnc32)c(OC)c1	205 to 207 °C
O=C(CCl)Nc1cc(F)ccc1F	118 to 120 °C
Nc1ccc(Cc2nnc3ccccn23)cc1	207 to 209 °C
NNC(=O)c1ccc(Cl)cc1O	209 to 211 °C
O=C(COc1ccccc1)Nc1ccc(O)cc1C(=O)O	254 to 256 °C
O=C(NCCO)c1cncc(Br)c1	128 to 130 °C
CS(=O)(=O)c1ccccc1N	62 to 64 °C
COc1ccc(C(=O)CSc2nc(C)n[nH]2)cc1Br	158 to 160 °C
CCCCc1ccc(N2CC(C(=O)O)CC2=O)cc1 (stereo not drawn)	139 to 141 °C
O=C(O)/C=C/c1cn(Cc2ccccc2Cl)nc1-c1ccccc1	148 to 150 °C
O=C(Nc1ccn[nH]1)OCc1ccccc1	194 to 196 °C
NS(=O)(=O)c1cc(C(=O)O)co1	176 to 178 °C
N#Cc1ccc(-c2nnc(CCl)o2)cc1	143 to 145 °C

Compound	melting point
O=C(O)Cc1ccc(NC(=O)c2ccc(Br)o2)cc1	199 to 201 °C
Nc1cccc(S(=O)(=O)Nc2ccc(Cl)cc2)c1	127 to 129 °C
O=C(O)c1ccc(Cl)cc1I	157 to 159 °C
CCc1ccc(N)c(C(=O)O)c1	127 to 129 °C
S=C1Cc2ccccc2N1	146 to 148 °C
O=C(O)c1cc(Br)ncc1[N+](=O)[O-]	169 to 171 °C
CN(C(=O)c1ccccc1C(=O)O)C1CCCCC1	144 to 146 °C
CC(C)(C)OC(=O)NCCCCC(=O)O	43 to 45 °C
S=C1NC2CCCCC2N1 (stereo not drawn)	134 to 136 °C
Cc1nn(C)c(C(=O)O)c1[N+](=O)[O-]	146 to 148 °C
Cc1ccccc1-n1ncc(C(=O)O)c1N	159 to 161 °C
CCOc1ccccc1-c1csc(N)n1	209 to 211 °C
Cc1ccc(C=O)nc1	39 to 41 °C
Cc1n[nH]c(O)c1C#N	229 to 231 °C
Cc1ccc(-c2nc(CCl)cs2)o1	71 to 73 °C
O=[N+]([O-])c1ccccc1CS(=O)(=O)Cl	64 to 66 °C
Nc1ccc(NCCCC(=O)O)cc1	148 to 150 °C
O=Cc1ccc(Br)c2cccnc12	119 to 121 °C
O=S1(=O)CC(O)C(NCc2ccco2)C1 (stereo not drawn)	139 to 141 °C
NS(=O)(=O)N1CCCC1	96 to 98 °C
Cn1cnnc1CO	49 to 51 °C
NC(=S)Nc1ccc(OC(F)(F)F)cc1	136 to 138 °C
NNc1nc(C(F)(F)F)cs1	122 to 124 °C
NS(=O)(=O)c1cccc2cnccc12	222 to 224 °C
CC(C)(C)c1ncccc1O	159 to 161 °C

Compound	melting point
CC(C)N1C(=O)NC(=O)C1=O	92 to 96 °C
Cn1ncc2ccc(C#N)cc21	104 to 106 °C
CC1CCCCN1Cc1ccc(N)cc1 (stereo not drawn)	54 to 56 °C
O=C(C(Cl)c1ccccc1)N1CCCCC1 (stereo not drawn)	63 to 74 °C
Cc1ccc(N2CC(C(=O)O)CC2=O)c(F)c1 (stereo not drawn)	112 to 114 °C
CCN(CC)S(=O)(=O)c1cc(N)ccc1Cl	95 to 99 °C
O=C1CCN(C(=O)c2ccccc2Cl)CC1	107 to 109 °C
Brc1cnc(NCc2ccncc2)nc1	122 to 124 °C
O=C(O)c1ccc(Oc2cccc(F)c2)cc1	146 to 148 °C
O=[N+]([O-])c1c(Cl)nc2ccccn12	170 to 172 °C
Sc1nnc(-c2cccs2)[nH]1	239 to 241 °C
CC(C)(C)C1(C)OC(=O)CC(=O)O1	72 to 74 °C
O=C(O)CCOc1ccccc1Br	111 to 113 °C
COc1sc(C=O)cc1Br	115 to 117 °C
O=C(O)CC(O)(c1nccn1Cc1ccccc1)C(F)(F)F (stereo not drawn)	152 to 154 °C
COc1ccc(C2=CCNCC2)cc1	73 to 75 °C
C#CCNC(=O)Nc1ccccc1[N+](=O)[O-]	190 to 192 °C
CSCc1cccc(C(=O)O)c1	78 to 80 °C
Nc1cc(C(F)(F)F)no1	52 to 54 °C
OCc1nnc(S)n1C1CC1	154 to 156 °C
Cc1c(C(=O)O)cnn1-c1ccccn1	174 to 176 °C
Cc1cn(-c2ccccc2)nc1N	119 to 121 °C
ClCC12CC3CC(CC(C3)C1)C2	38 to 42 °C
Cc1ccc(NC(=O)c2cc(Cl)ccc2Cl)c(C(=O)O)c1	242 to 244 °C
COc1cc(CN)cc(OC)c1O	149 to 151 °C

Compound	melting point
NC(=O)Cc1cccc(C(F)(F)F)c1	106 to 108 °C
CCOc1cc(C=O)ccc1OCCOc1ccc(F)cc1	85 to 87 °C
NC(=S)Nc1ccccc1Oc1ccccc1	125 to 127 °C
CC(C)C(N)c1nn[nH]n1 (stereo not drawn)	272 to 274 °C
Cc1cnc2ccccc2c1Cl	57 to 59 °C
COC(=O)c1c(F)cc(C#N)cc1F	111 to 113 °C
Nc1nonc1I	90 to 92 °C
Clc1cc(Cl)nc(-c2ccccn2)n1	142 to 144 °C
COc1cc2nc(-c3ccccc3)nc(Cl)c2cc1OC	132 to 134 °C
COCCNS(=O)(=O)c1ccc(N)cc1	83 to 85 °C
CC1(c2ccc(Br)cc2)NC(=O)NC1=O (stereo not drawn)	262 to 264 °C
Cc1nn(Cc2ccc(Cl)cc2Cl)c(Cl)c1C(=O)O	227 to 229 °C
CCOC(=O)C(=O)Nc1ccc([N+](=O)[O-])cc1	172 to 174 °C
CS(=O)(=O)N1CCN(S(=O)(=O)Cl)CC1	222 to 224 °C
Cc1nscc1C(=O)O	219 to 221 °C
CCN(CC)S(=O)(=O)c1cc(C)c(C)c(N)c1	147 to 149 °C
CC1CC1C(N)=O (stereo not drawn)	93 to 95 °C
NCc1ccccc1-c1ccc(CN2CCCC2=O)cc1	82 to 84 °C
COc1ccc(CCC(=O)O)cc1Br	95 to 97 °C
CN(C)C(=O)c1ccc(Cl)cc1N	65 to 67 °C
Cn1c(=O)[nH]c2ccc(C(=O)O)cc21	366 to 368 °C
CCOc1cc(C=O)ccc1OCC(F)(F)F	38 to 40 °C
O=C(O)c1cc(O)nc2ccc(Br)cc12	355 to 357 °C
